US20240307345A1, “R-MDMA and S-MDMA TO ASSIST PSYCHOTHERAPY” (Universitatsspital Basel, priority 2022, published 2024)

Columns and labels:
mice [1] = settings: cited from earlier work
mice [2] = settings: cited from earlier work; remark: listed apart in the source
rhesus monkeys [3] = settings: indicative of abuse-liability; cited from earlier work
rhesus monkeys [4] = settings: cited from earlier work
[5] = system: dopamine (DA), norepinephrine (NE), serotonin (5-HT), and oxytocin; settings: preclinical research; cited from earlier work
serotonin = settings: rat, in vivo; cited from earlier work
animals [6] = settings: cited from earlier work
[7] = administered repeatedly at high doses; cited from earlier work
healthy subjects [8] = assay: Effects on mood on the Adjective Mood Rating Scale (AMRS); format: in vivo, human
Experimental: (§1) Study design: The present study compares the acute subjective, physiological and endocrine effects of S-MDMA (125 mg), R-MDMA (125 and 250 mg), MDMA (125 mg) using a placebo-controlled double-blind 5-period cross-over design in 24 healthy subjects. Conditions are 1.) R-MDMA 125 mg, 2). R-MDMA 250 mg, 3) S-MDMA 125 mg, 4) MDMA 125 mg, 5) placebo. Treatment order is counterbalanced. Washout periods between substance administrations are at least 10 days. Study days include a 10-hour study session with a subsequent single measurement (short visit) the next morning (24 hours after drug administration).
(§2) Psychometric assessments: Visual Analog Scale (VAS): VASs is repeatedly used to assess subjective alterations in consciousness over time. Single scales are presented as 100 mm horizontal lines marked with “not at all” on the left and “extremely” on the right. The following VAS items are used: “any drug effect”, “good drug effect”, “bad drug effect”, “stimulated”, “liking”, “happy”, “content”, “talkative”, “open”, “trust”, “feeling close to others”, “anxiety”, “alteration of vision”, “alterations of hearing”, “sounds seem to influence what I see”, “alteration of sense of time”, “the boundaries between myself and my surroundings seem to blur”, “want to be with other people”, and “want to be alone”. Scales are administered before and repeatedly after substance administration and take approximately 2 minutes to fill out. The maximal ratings (Emax, 0-100) and areas under the effect-time curve (AUEC) are defined for each VAS and Emax and AUEC values compared between treatments using analysis of variance. 5-Dimensions of Altered States of Consciousness (5D-ASC): The 5 Dimensions of Altered States of Consciousness (5D-ASC) Scale is a questionnaire containing visual analog scales for 94 items (Studerus et al., 2010). The instrument contains five scales assessing mood, anxiety, derealization, depersonalization, changes in perception, auditory alterations, and reduced vigilance. The scale is well-validated (Studerus et al., 2010) and used internationally to evaluate effects of many other psychoactive substances. The overall psychedelic experience is reflected by the total […] score. Each item of the scale is scored on a 0-100 mm VAS. The attribution of the individual items to the subscales of the 5D-ASC is analyzed according to (Studerus et al., 2010). The 5D-ASC scale is administered once at the end of the session and subjects are instructed to retrospectively rate peak alterations that have been experienced during the study session. Adiective Mood Rating Scale (AMRS): The Adjective Mood Rating Scale (AMRS or EWL60S) is a 60-item Likert scale that allows repeated assessment of mood in 6 dimensions: Activation, inactivation, well-being, anxiety/depressed mood, extra- and introversion, and emotional excitability. The German EWL60S version is used. The AMRS consists of subscales measuring “activation,” “positive mood,” “extraversion,” “introversion,” “inactivation,” and “emotional excitability. The scale has previously been used to evaluate effects of many other psychoactive substances. Emax and AUEC scores will be defined for each subscale and compared between treatments using analysis of variance. The AMRS is administered repeatedly throughout the study session and once 3 days after each session. States of Consciousness Questionnaire (SCQ): In the SCQ, 100-items are rated on a six-point scale. Forty-three items embedded into this questionnaire comprise the Mystical Experience Questionnaire (MEQ) (MacLean et al., 2011) which is sensitive to the effects of psychedelic substances such as LSD. […]

healthy subjects [9] = assay: Endocrine effects (plasma prolactin and cortisol); format: in vivo, human
Experimental: as §1
Endocrine effects: Cortisol and prolactin: Cortisol and prolactin are determined as biological markers of serotonergic activity (Seifritz et al., 1996). Plasma concentrations are determined by routine immune assays. Oxytocin and vasopressin: MDMA increase circulating oxytocin (Hysek et al., 2014a) and vasopressin or its precursor copeptin (Simmler et al., 2011). These neurohormones are thought to mediate neurocognitive and adverse effects of MDMA and the role of R-versus S-MDMA remains to be explored. Oxytocin and vasopressin plasma levels are measured before and after substance administration. Concentrations are determined using immunoassays.

healthy subjects [10] = assay: Connectedness subscale of the PES questionnaire; format: in vivo, human
healthy subjects [11] = assay: Alteration of mind and mystical-type effects on 5D-ASC and MEQ questionnaires; format: in vivo, human; settings: for acute mystical-type experiences on the 5D-ASC scale: 24 subjects
Experimental: as §1, §2

animals [12] = settings: various animal studies; cited from earlier work
model of PTSD = settings: cited from earlier work
humans = settings: earlier human study; R-MDMA doses up to 200 mg; cited from earlier work
monkeys = settings: cited from earlier work
mice [13] = settings: cited from earlier work; remark: listed apart in the source
prolactin (PRL) = settings: preclinical research; cited from earlier work
[14] = 125 mg, compared with placebo (and 125 mg R-MDMA)

## CN[C@@H](C)Cc1ccc2c(c1)OCO2 [S-MDMA, S(+)-MDMA]
Mice [1]; compared with R-MDMA
  onset of interoceptive effects: faster
Mice [2]
  lethal doses: similar
Rhesus monkeys [3]
  reinstatement of amphetamine responding: reinstated amphetamine responding
Rhesus monkeys [4]
  potency to maintain self-administration: more potent than R-MDMA
[5]
  release of dopamine (DA), norepinephrine (NE), serotonin (5-HT), and oxytocin: mainly releases
serotonin
  depleting serotonin: more effective
Animals [6]
  hyperthermia: induced hyperthermia
[7]
  neurotoxicity: more neurotoxic than R-MDMA
Healthy subjects [8]; 125 mg
  effects on the AMRS: comparable effects
Healthy subjects [8]; 125 mg S-MDMA versus both doses of R-MDMA
  AMRS “Emotional excitation”: more
Healthy subjects [9]; 125 mg S-MDMA compared to (±)-MDMA and 125 mg R-MDMA
  prolactin release: increased more
Healthy subjects [9]; 125 mg S-MDMA compared to (±)-MDMA and both doses of R-MDMA
  cortisol release: increased cortisol release more
Healthy subjects [10]; 125 mg
  ratings of connectedness, difference between conditions: no difference
Healthy subjects [11]; 125 mg
  acute mystical-type experiences on the 5D-ASC scale: comparable effects with no significant differences
Healthy subjects [11]; [14]
  psychedelic effects on the 5D-ASC and the MEQ questionnaires: comparable and overall greater psychedelic effects
Animals [12]
  social interaction: only slightly with S-MDMA or not at all
Model of PTSD
  conditioned fear during extinction training: reduced conditioned fear during extinction training but not thereafter
humans
  activity in humans: more active than the R-enantiomer

## CN[C@H](C)Cc1ccc2c(c1)OCO2 [R-MDMA, R(−)-MDMA]
Mice [1]
  duration of discriminative stimulus effects: shortest
monkeys
  peak effects on prosocial behaviors: greater peak effects than S-MDMA
Healthy subjects [8]; 125 mg
  effects on the AMRS: comparable effects
Healthy subjects [8]; 125 mg R-MDMA versus (±)-MDMA and S-MDMA
  AMRS “Extraversion”: less
Healthy subjects [8]; 250 mg
  effects on the AMRS: comparable effects
Healthy subjects [8]; 250 mg R-MDMA versus (±)-MDMA
  AMRS “Introversion”: significant more
Healthy subjects [10]; 250 mg
  ratings of connectedness, difference between conditions: no difference
Healthy subjects [11]; 125 mg
  acute mystical-type experiences on the 5D-ASC scale: only significantly induced mystical-type effects on the 5D-ASC total score and the “Reductions of vigilance” scale
Healthy subjects [11]; [14]
  psychedelic effects on the 5D-ASC and the MEQ questionnaires: only significantly induced the 5D-ASC total score and the dimension “Reductions of vigilance” on the 5D-ASC and “positive mood”, “Ineffability” and the MEQ30 total score
Healthy subjects [11]; 250 mg
  acute mystical-type experiences on the 5D-ASC scale: comparable effects with no significant differences
Healthy subjects [11]; 250 mg, compared with placebo and 125 mg R-MDMA
  psychedelic effects on the 5D-ASC and the MEQ questionnaires: comparable and overall greater psychedelic effects
Mice [13]
  peak effects on prosocial behaviors: greater peak effects than S-MDMA
Animals [12]
  social interaction: Increased social interaction
Model of PTSD
  conditioned fear when retention of extinction was assessed: reduced conditioned fear
Prolactin (PRL)
  release of prolactin (PRL): release prolactin
